Active and inactive are the calls of the source.
How the values were obtained:
[1] = NIH-3T3 fibroblast cytotoxicity, dose response, cytotoxicity control, cell-based, fluorescence, Alamar Blue, secondary assay (AID 2327); assay type: functional;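 further: NIH-3T3 mouse fibroblasts cultured with fluconazole at 8 µg/mL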
[2] = cells; assay type: functional, cell-based
[3] = biological target: T1, Exodeoxyribonuclease V (Escherichia coli (strain K12), UniProt P04993+P07648+P08394); assay: E. coli RecBCD inhibitors, dose response, counter-screen for AddAB inhibitor project, absorbance, V66 E. coli, mutant T4 phage (AID 492957); assay type: functional, cell-based, Escherichia coli str. K-12 substr. MG1655
T1 sequence (P04993 whole entry): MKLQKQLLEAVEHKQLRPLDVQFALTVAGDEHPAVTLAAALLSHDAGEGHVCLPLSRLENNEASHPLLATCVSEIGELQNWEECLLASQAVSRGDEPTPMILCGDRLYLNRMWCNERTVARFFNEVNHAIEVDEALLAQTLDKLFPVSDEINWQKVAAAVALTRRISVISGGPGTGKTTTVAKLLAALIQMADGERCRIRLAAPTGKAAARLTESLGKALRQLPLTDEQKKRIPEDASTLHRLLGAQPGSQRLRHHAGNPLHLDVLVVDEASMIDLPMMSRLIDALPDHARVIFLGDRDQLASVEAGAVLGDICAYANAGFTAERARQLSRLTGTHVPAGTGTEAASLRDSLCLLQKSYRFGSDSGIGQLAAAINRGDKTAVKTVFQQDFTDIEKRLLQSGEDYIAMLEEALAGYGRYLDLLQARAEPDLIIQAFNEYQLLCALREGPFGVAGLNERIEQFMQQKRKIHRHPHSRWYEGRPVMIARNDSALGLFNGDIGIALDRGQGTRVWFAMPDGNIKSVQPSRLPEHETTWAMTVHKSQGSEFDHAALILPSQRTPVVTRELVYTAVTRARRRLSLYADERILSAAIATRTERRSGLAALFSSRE
T1 sequence (P07648 whole entry): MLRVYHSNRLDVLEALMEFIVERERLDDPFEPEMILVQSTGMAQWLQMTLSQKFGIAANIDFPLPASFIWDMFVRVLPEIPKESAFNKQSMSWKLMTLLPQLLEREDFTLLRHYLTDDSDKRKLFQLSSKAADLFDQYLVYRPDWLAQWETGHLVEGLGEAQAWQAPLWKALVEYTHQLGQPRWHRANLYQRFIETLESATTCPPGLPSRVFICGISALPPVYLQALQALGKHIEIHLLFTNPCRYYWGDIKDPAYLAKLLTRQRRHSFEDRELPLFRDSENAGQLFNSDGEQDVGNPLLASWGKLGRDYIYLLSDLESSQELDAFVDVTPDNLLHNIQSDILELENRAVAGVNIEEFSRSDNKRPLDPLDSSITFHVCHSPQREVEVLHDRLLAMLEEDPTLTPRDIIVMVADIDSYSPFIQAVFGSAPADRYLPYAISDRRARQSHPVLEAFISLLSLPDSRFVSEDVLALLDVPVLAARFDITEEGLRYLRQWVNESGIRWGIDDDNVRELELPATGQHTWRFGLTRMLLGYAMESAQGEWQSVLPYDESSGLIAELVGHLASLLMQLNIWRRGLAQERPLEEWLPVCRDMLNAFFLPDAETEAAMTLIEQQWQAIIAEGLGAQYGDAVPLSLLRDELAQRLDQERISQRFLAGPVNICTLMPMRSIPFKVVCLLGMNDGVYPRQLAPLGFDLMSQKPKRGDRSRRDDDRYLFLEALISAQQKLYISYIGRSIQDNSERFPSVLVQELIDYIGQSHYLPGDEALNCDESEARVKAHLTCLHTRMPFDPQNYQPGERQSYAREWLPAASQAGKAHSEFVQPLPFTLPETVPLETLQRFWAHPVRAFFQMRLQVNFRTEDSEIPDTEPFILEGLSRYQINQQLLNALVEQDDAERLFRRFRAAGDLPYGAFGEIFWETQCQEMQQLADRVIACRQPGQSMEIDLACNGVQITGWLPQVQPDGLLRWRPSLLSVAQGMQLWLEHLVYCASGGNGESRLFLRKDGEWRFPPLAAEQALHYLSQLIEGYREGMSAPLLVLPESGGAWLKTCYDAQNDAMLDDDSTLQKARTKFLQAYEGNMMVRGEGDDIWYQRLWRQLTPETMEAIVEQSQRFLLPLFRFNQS
T1 sequence (P08394 whole entry): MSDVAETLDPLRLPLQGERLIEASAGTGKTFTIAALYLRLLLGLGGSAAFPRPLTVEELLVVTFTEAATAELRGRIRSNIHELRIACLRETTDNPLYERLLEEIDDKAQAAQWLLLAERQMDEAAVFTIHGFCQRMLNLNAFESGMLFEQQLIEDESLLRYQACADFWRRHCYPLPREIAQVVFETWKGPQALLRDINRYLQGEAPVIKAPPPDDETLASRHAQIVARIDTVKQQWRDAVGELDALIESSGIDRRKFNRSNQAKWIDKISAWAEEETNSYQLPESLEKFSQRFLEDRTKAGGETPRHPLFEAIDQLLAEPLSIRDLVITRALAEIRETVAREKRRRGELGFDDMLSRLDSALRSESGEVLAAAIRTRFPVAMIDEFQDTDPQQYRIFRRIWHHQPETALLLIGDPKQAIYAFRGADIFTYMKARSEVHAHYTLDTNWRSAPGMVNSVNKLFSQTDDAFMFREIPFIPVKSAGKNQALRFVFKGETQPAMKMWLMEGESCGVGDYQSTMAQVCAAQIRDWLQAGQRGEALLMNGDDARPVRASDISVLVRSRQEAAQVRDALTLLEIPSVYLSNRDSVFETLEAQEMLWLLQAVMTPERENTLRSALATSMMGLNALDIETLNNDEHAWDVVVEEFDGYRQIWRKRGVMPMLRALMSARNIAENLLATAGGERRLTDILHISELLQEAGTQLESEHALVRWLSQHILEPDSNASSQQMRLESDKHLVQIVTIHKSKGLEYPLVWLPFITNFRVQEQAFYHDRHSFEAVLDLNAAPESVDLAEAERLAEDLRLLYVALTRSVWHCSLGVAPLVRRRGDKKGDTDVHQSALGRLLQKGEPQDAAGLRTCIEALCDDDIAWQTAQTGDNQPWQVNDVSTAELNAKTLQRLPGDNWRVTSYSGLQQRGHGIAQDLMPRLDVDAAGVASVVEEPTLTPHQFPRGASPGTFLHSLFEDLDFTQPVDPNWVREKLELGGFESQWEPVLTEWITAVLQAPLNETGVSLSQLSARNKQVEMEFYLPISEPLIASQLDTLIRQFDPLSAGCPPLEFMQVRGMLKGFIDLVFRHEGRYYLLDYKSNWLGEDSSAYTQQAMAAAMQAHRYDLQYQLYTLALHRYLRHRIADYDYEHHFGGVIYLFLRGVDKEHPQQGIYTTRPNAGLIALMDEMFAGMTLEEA

[4] = biological target: Heat shock protein HSP 90-alpha (Homo sapiens, UniProt P07900); assay type: functional, organism-based
[5] = test system: INS1; assay: beta cell apoptosis inhibitors, cytokine rescue, dose response, luminescence, retest (AID 449756); assay type: functional, cell-based; details: Rattus norvegicus;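 further: cell death triggered by IL-1 beta plus TNF-alpha plus IFN-gamma mixture; protective hits raise ATP signal compared with cytokine alone wells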

Oc1c(C(c2ccccc2Cl)N2CCCC2)ccc2cccnc12 (stereo unspecified)
EC50 [1]: > 160 µM (inactive) | EC50 [2]: 27.4 µM (active) | IC50 [3]: 102 µM (inactive) | AC50 [4]: 3.34 µM (active) | AC50 [5]: 3.41 µM (active)

COc1cccc(/C=N/Nc2ccc([N+](=O)[O-])cn2)c1O
EC50 [1]: 1.61 µM (inconclusive) | EC50 [2]: > 350 µM (not active) | IC50 [3]: > 118 µM (inactive) | AC50 [4]: 3.85 µM (active) | AC50 [5]: 2.14 µM (active)

CCc1ccc(S(=O)(=O)/N=C2\C=C(Nc3ccc(C(=O)O)cc3)C(=O)c3ccccc32)cc1
AC50 [5]: 11.3 µM (active)

From ChEMBL document CHEMBL1201862, “PubChem BioAssay data set” (2004)
